For one molecule, IC50 results are on record in patent publication US11033537B2, “LPT-723 and immune checkpoint inhibitor combinations and methods of treatment” (BIOMED VALLEY DISCOVERIES, INC., priority 2015, dated 2021).

Each structure is given as a SMILES string.

As usually defined, the IC50 is the concentration at which inhibition is half-maximal. High values mean weaker potency in that assay, low ones greater potency in that assay.

Type in all cases: cell-based, murine
One assay deals with A20 cells. Description: In vitro cell viability assay, A20.
The test system of another assay is MBT-2 cells. Description: In vitro cell viability assay, MBT-2.
Another assay concerns Pan02 cells. Briefly: In vitro cell viability assay (CellTiter-Glo), Pan02. An excerpt:
No significant changes in body weights were noted.

For the molecule `N.N.[Cl][Pt][Cl]` [Cisplatin, reference compound], the IC50 is 1070 nM in the assay on A20 cells, 6.87 µM in the assay on MBT-2 cells and 1090 nM in the assay with Pan02 cells.
